Data on one substance can be found in US20050013875A1, “Immunopotentiators in thermotherapy for cancer” (priority 2001, published 2005).

Assay [1] concerns MFH cells. Kind of assay: Tumor regression in MFH cancer-carried F344 rats under MCL hyperthermia (tumor tissue volume). It is filed as in vivo, rat. As to conditions: (GGA+AMF) Group: hyperthermia using MCL and GGA in combination, magnetic field irradiation three times, among 8 individuals. The protocol:
(§1) As experimental individuals, F344 rats (female, 7 to 8-weeks old) were used. MFH cells 1×10^7 cultured on Petri dish for cell-cultivation were dispersed in about 50 μl of a physiologically buffered saline, and then, the cells suspension was transplanted subcutaneously to a right leg of an experimental individual by using a scalp vein needle (25G×5/8″) (Terumo Corporation) to make a cancer-carried experimental individual. Nembutal (available from Dainippon Pharmaceutical Co., Ltd.) was used for anesthesia, and that diluted to five times (50 mg/kg body weight) was administered to abdominal cavity.
A slurry of the magnetite (particle diameter 10 nm; available from Toda Kogyo Corporation) was sufficiently washed with a distilled water to remove unnecessary ion components, subjected to ultrasonic wave treatment, to obtain colloidal magnetite. […]
Under anesthesia of experimental individuals, a longer diameter and a shorter diameter of the tumor tissue were measured by using calipers and calculated out from the following formula. […]

Assay [2] deals with HSP70. Kind of assay: In vitro HSP70 expression in heated MFH cells (immunoassay kit, Western Blot). It is filed as cell-based. The conditions noted are these: GGA 10^-5 M or 10^-4 M, 45° C. for 15 minutes, measured 6 hours after heating. As for the experimental part:
Cultivation of MFH cells was carried out by using a 100 mm Petri dish for culturing cells into which 10 ml of a medium had been charged, at 37° C. for 24 hours in an incubator into which 5% of carbon dioxide was added. As the medium, a medium comprising Dulbecco's modified Eagle's Medium that contains 10% fetal bovine serum and, as antibiotics, penicillin G potassium (100 U/ml) and streptomycin sulfate ([…]) was used.
After 6 hours from completion of the heating, a culture broth was removed from the Petri dish for culturing, the cells were washed twice with a physiological saline, a liquid to dissolve the cells attached to a HSP70 immunoassay kit was added to the cells with a predetermined amount to extract HSP70 from the cells. This was quantitated by the immunoassay kit. Also, the cells extract was subjected to electrophoresis, and an amount of HSP70 was qualitatively examined by Western Blot.
(In general: In western blotting, separated proteins are transferred to a membrane and probed.)

In assay [3] the test system is HSP70. Kind of assay: HSP70 immunostain of tumor tissue after GGA administration. As to conditions: F344 rat MFH tumor, GGA locally injected 12 hours after MCL, tumor cut out 2 hours after GGA, FIG. 1. Type of assay: in vivo. As for the experimental part: as §1
Under anesthesia of a rat, MCL with a concentration of 7.5 mg/ml and 3.3 mg of net weight magnetite was administered to the tumor tissue of the rat 10 days after transplantation of the MFH cells over 30 minutes by using a microsyringe pump (SP100i syringe pump, manufactured by WPI Co.), and thereafter, the rat was allowed to stand for 30 minutes. Magnetic field irradiation was carried out after 24 hours from injection of the MCL.

As for geranylgeranyl acetone [GGA], the “individuals whose tumors were completely regressed and cured” value in assay [1] amounted to 8 individuals. The “expressed amount of the HSP70 after applying thermal stress” value in assay [2] was “increased depending on an amount of the GGA added”. For the same substance, the “induction of HSP70 in tumor tissue (HSP70 stain)” value in assay [3] is “induction of HSP70 was confirmed”.
